Settings: daily for 42 days, with olaparib 150 mg 3 days/week
Description: Up to 3 cycles were delivered in the absence of disease progression or unacceptable toxicity. Patients progression free after 3 cycles were eligible for further cycles if approved by sponsor. […] Neurosurgical resection was mandatory in the expansion cohort.
If 2 or more of 6 patients at one dose level experienced a dose limiting toxicity (DLT), this was considered “not tolerated” and designated the maximum administered dose (MAD).

Cn1nnc2c(C(N)=O)ncn2c1=O [TMZ, temozolomide]
MTD / RP2D, TMZ dose: 75 mg/m^2

Source: article PMC7746945 (Neuro-Oncology, 2020)
